Assay results taken from publication PMC3169398 (Acta Crystallographica Section F: Structural Biology and …, 2011).

How the values were obtained:
[1] = molecular target: T1, Bp PPAT (tagged, MAHHHHHHMGTLEAQTQGPGS-ORF) (Burkholderia pseudomallei, UniProt Q3JW91); settings: pH 4.6, 0.2 M ammonium sulfate, PEG 2000 MME; 1 mM coenzyme A added; active site; moiety of hydrolysed or disordered coenzyme A; weak density, adenine possibly partially occupied; may be part of disor
T1 construct: gene coaD

[2] = molecular target: T2, Bp PPAT (tagless, GPGS-ORF) (Burkholderia pseudomallei, UniProt Q3JW91); settings: 2.0 M ammonium sulfate; 10 mM ATP added to protein; ligand carried over from E. coli host; active site; occupancy 0.5
T2 construct: gene coaD
T2 sequence (Q3JW91 whole entry, looked up): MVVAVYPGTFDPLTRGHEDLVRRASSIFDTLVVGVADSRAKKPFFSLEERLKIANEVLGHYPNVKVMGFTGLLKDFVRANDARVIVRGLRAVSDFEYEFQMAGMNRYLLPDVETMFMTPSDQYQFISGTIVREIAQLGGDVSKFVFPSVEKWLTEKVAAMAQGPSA

T1 sequence (Q3JW91 whole entry, looked up): as above

Row | Compound | X-ray crystal structure, 1.6 Å [1] | X-ray crystal structure, 2.1 Å [2]
1 | Nc1ncnc2[nH]cnc12 [adenine] | We noted modest omit electron density for the adenine ring, which was also modelled | –
2 | CC(C)(COP(=O)(O)OP(=O)(O)OC[C@H]1O[C@@H](n2cnc3c(N)ncnc32)[C@H](O)[C@@H]1O)[C@@H](O)C(=O)NCCC(=O)NCCS [dephospho-coenzyme A] | – | clear evidence but weak electron density for dephospho-coenzyme A in the active site
